Measured values from US20040192910A1, “Sulfonylamino derivatives useful as herbicides” (priority 2001, published 2004).

Experiments:
Type in all cases: in vivo
Set-up in all cases: key: 1=total damage; 9=no action
Abutilon [1] = experiment: Post-emergence herbicidal action; conditions: 250 g a.i./ha (500 litres water/ha), sprayed at 4- to 6-leaf stage, evaluated after about 18 days; scale of nine ratings, 1 to 4 = good to very good action
Source text: (§1) Post-Emergence Herbicidal Action
(§2) Monocotyledonous and dicotyledonous test plants are raised in a greenhouse in plastic pots containing standard soil and at the 4- to 6-leaf stage are sprayed with an aqueous suspension of the test compounds of formula I (prepared from a 25% wettable powder (Example F3, b) according to WO 97/34485) or with an emulsion of the test compounds of formula I (prepared from a 25% emulsifiable concentrate (Example F1, c) according to WO 97/34485) at a rate of application corresponding to 250 g a.i./ha (500 litres water/ha). The test plants are then grown on in the greenhouse under optimum conditions. After a test duration of about 18 days, the test is evaluated in accordance with a scale of nine ratings (1=total damage, 9=no action). Ratings of from 1 to 4 (especially from 1 to 3) indicate good to very good herbicidal action.

Amarantus [2] = experiment: Post-emergence herbicidal action; conditions: 250 g a.i./ha (500 litres water/ha), sprayed at 4- to 6-leaf stage, evaluated after about 18 days; scale of nine ratings, 1 to 4 = good to very good action
Source text: as §1, §2

Brachiaria [3] = experiment: Post-emergence herbicidal action; conditions: 250 g a.i./ha (500 litres water/ha), sprayed at 4- to 6-leaf stage, evaluated after about 18 days; scale of nine ratings, 1 to 4 = good to very good action
Source text: as §1, §2

Chenopodium [4] = experiment: Post-emergence herbicidal action; conditions: 250 g a.i./ha (500 litres water/ha), sprayed at 4- to 6-leaf stage, evaluated after about 18 days; scale of nine ratings, 1 to 4 = good to very good action
Source text: as §1, §2

Digitaria [5] = experiment: Post-emergence herbicidal action; conditions: 250 g a.i./ha (500 litres water/ha), sprayed at 4- to 6-leaf stage, evaluated after about 18 days; scale of nine ratings, 1 to 4 = good to very good action
Source text: as §1, §2

Panicum [6] = experiment: Post-emergence herbicidal action; conditions: 250 g a.i./ha (500 litres water/ha), sprayed at 4- to 6-leaf stage, evaluated after about 18 days; scale of nine ratings, 1 to 4 = good to very good action
Source text: as §1, §2

Setaria = experiment: Post-emergence herbicidal action; conditions: 250 g a.i./ha (500 litres water/ha), sprayed at 4- to 6-leaf stage, evaluated after about 18 days; scale of nine ratings, 1 to 4 = good to very good action
Source text: as §1, §2

Stellaria = experiment: Post-emergence herbicidal action; conditions: 250 g a.i./ha (500 litres water/ha), sprayed at 4- to 6-leaf stage, evaluated after about 18 days; scale of nine ratings, 1 to 4 = good to very good action
Source text: as §1, §2

Abutilon [7] = experiment: Pre-emergence herbicidal action; conditions: 250 g a.i./ha (500 litres water/ha), sprayed immediately after sowing, evaluated after 3 weeks; scale of nine ratings, 1 to 4 = good to very good action
Source text: (§3) Herbicidal Action Prior to Emergence of the Plants (Pre-Emergence Action) Monocotyledonous and dicotyledonous test plants are sown in standard soil in plastic pots. Immediately after sowing, an aqueous suspension (prepared from a 25% wettable powder (Example F3, b) according to WO 97/34485) or an emulsion (prepared from a 25% emulsifiable concentrate (Example F1, c)) of the test compounds is applied by spraying at a rate of application corresponding to 250 […]). The test plants are then cultivated in a greenhouse under optimum conditions.

Amarantus [8] = experiment: Pre-emergence herbicidal action; conditions: 250 g a.i./ha (500 litres water/ha), sprayed immediately after sowing, evaluated after 3 weeks; scale of nine ratings, 1 to 4 = good to very good action
Source text: as §3

Brachiaria [9] = experiment: Pre-emergence herbicidal action; conditions: 250 g a.i./ha (500 litres water/ha), sprayed immediately after sowing, evaluated after 3 weeks; scale of nine ratings, 1 to 4 = good to very good action
Source text: as §3

Chenopodium [10] = experiment: Pre-emergence herbicidal action; conditions: 250 g a.i./ha (500 litres water/ha), sprayed immediately after sowing, evaluated after 3 weeks; scale of nine ratings, 1 to 4 = good to very good action
Source text: as §3

Digitaria [11] = experiment: Pre-emergence herbicidal action; conditions: 250 g a.i./ha (500 litres water/ha), sprayed immediately after sowing, evaluated after 3 weeks; scale of nine ratings, 1 to 4 = good to very good action
Source text: as §3

Echinochloa = experiment: Pre-emergence herbicidal action; conditions: 250 g a.i./ha (500 litres water/ha), sprayed immediately after sowing, evaluated after 3 weeks; scale of nine ratings, 1 to 4 = good to very good action
Source text: as §3

Euphoria = experiment: Pre-emergence herbicidal action; conditions: 250 g a.i./ha (500 litres water/ha), sprayed immediately after sowing, evaluated after 3 weeks; scale of nine ratings, 1 to 4 = good to very good action
Source text: as §3

Panicum [12] = experiment: Pre-emergence herbicidal action; conditions: 250 g a.i./ha (500 litres water/ha), sprayed immediately after sowing, evaluated after 3 weeks; scale of nine ratings, 1 to 4 = good to very good action
Source text: as §3

SMILES	Post-emergence action, rating, Abutilon (Abutilon [1])	Post-emergence action, rating, Amarantus (Amarantus [2])	Post-emergence action, rating, Brachiaria (Brachiaria [3])	Post-emergence action, rating, Chenopodium (Chenopodium [4])	Post-emergence action, rating, Digitaria (Digitaria [5])	Post-emergence action, rating, Panicum (Panicum [6])	Post-emergence action, rating, Setaria (Setaria)	Post-emergence action, rating, Stellaria (Stellaria)	Pre-emergence action, rating, Abutilon (Abutilon [7])	Pre-emergence action, rating, Amarantus (Amarantus [8])	Pre-emergence action, rating, Brachiaria (Brachiaria [9])	Pre-emergence action, rating, Chenopodium (Chenopodium [10])	Pre-emergence action, rating, Digitaria (Digitaria [11])	Pre-emergence action, rating, Echinochloa (Echinochloa)	Pre-emergence action, rating, Euphoria (Euphoria)	Pre-emergence action, rating, Panicum (Panicum [12])
Cc1nc(C(F)(F)F)ccc1C(=O)C1=C(Cl)C(C)(C)C(=O)C(C)(C)C1=NS(C)(=O)=O [1.001, N-[3-chloro-4,4,6,6-tetramethyl-2-(2-methyl-6-trifluoromethyl-pyridine-3-carbonyl)-5-oxo-cyclohex-2-en-ylidene]-methanesulfonamide]	2	2	1	2	1	1	1	2								
Cc1nc(C(F)(F)F)ccc1C(=O)C1=C(Cl)C(C)(C)C(=O)C(C)(C)C1=NS(=O)(=O)c1cccnc1F [1.026, N-[3-chloro-5-oxo-4,4,6,6-tetramethyl-2-(2-methyl-6-trifluoromethyl-pyridine-3-carbonyl)-cyclohex-2-en-ylidene]-3-(2′-fluoropyridyl)sulfonamide]	1	1	2	1	1	1	1	2	1	1	1	1	1	1	2	1
Cc1nc(C(F)(F)F)ccc1C(=O)C1=C(Cl)C(C)(C)C(=O)C(C)(C)C1=NS(=O)(=O)c1ccccc1 [1.027]	1	2	2	1	2	2	1	1	1	1	1	1	1	1	1	1
C=CS(=O)(=O)N=C1C(C(=O)c2ccc(C(F)(F)F)nc2C)=C(Cl)C(C)(C)C(=O)C1(C)C [1.028, N-[3-chloro-3-oxo-4,4,6,6-tetramethyl-2-(2-methyl-6-trifluoromethyl-pyridine-3-carbonyl)-cyclohex-2-en-ylidene]-vinylsulfonamide]	1	2	2	1	1	1	1	1	1	1	1	1	3	1	2	1
CSC1=C(C(=O)c2ccc(C(F)(F)F)nc2C)C(=NS(=O)(=O)c2cccnc2F)C(C)(C)C(=O)C1(C)C [1.078, N-[3-methylthio-5-oxo-4,4,6,6-tetramethyl-2-(2-methyl-6-trifluoromethyl-pyridine-3-carbonyl)-cyclohex-2-en-ylidene]-3-(2′-fluoropyridyl)sulfonamide]	1	2	3	1	1	1	2	3	1	1	2	1	1	1	2	1
CSC1=C(C(=O)c2ccc(C(F)(F)F)nc2C)C(=NS(=O)(=O)c2ccccc2)C(C)(C)C(=O)C1(C)C [1.079]	2	2	2	1	2	2	2	1	1	1	1	1	1	1	2	1
